Measurements: PubChem BioAssay AID1963438 (Molecular Pharmacology Branch, DTP, NCI, 2024)
Several values for one entry are separate records, joined by “and”; a condition that tells them apart may be missing. Equal values may be shown once.

Test system: NCI-H510 multicellular tumor spheroid growth, % test/control
Assay: Anticancer human tumor NCI-H510 cell line growth inhibition [Asc];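 note: spheroids exposed to agents for 7 days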;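 for viability, T/C: 100% = DMSO vehicle control wells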
Details: for viability, T/C: stronger effect = lower value
Outline: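 Tumor cells were grown as complex spheroids with human endothelial cells (HUVEC) and human mesenchymal stem cells as stroma. Agents were tested alone and in combination, in half-log steps down from the clinical Cmax, or from 10 microM where Cmax was unknown.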

[1] = curve of first compound, second compound 0.1 µM
[2] = curve of first compound, second compound 0.316 µM
[3] = curve of first compound, second compound 1 µM
[4] = curve of first compound, second compound 3.16 µM
[5] = curve of first compound, second compound 10 µM
[6] = second compound 0.1 µM, first compound 0.00949 µM
[7] = second compound 0.1 µM, first compound 0.03 µM
[8] = second compound 0.1 µM, first compound 0.0949 µM
[9] = second compound 0.1 µM, first compound 0.3 µM
[10] = second compound 0.1 µM, first compound 0.949 µM
[11] = second compound 0.1 µM, first compound 3 µM
[12] = second compound 0.316 µM, first compound 0.00949 µM
[13] = second compound 0.316 µM, first compound 0.03 µM
[14] = second compound 0.316 µM, first compound 0.0949 µM
[15] = second compound 0.316 µM, first compound 0.3 µM
[16] = second compound 0.316 µM, first compound 0.949 µM
[17] = second compound 0.316 µM, first compound 3 µM
[18] = second compound 1 µM, first compound 0.00949 µM
[19] = second compound 1 µM, first compound 0.03 µM
[20] = second compound 1 µM, first compound 0.0949 µM
[21] = second compound 1 µM, first compound 0.3 µM
[22] = second compound 1 µM, first compound 0.949 µM
[23] = second compound 1 µM, first compound 3 µM
[24] = second compound 3.16 µM, first compound 0.00949 µM
[25] = second compound 3.16 µM, first compound 0.03 µM
[26] = second compound 3.16 µM, first compound 0.0949 µM
[27] = second compound 3.16 µM, first compound 0.3 µM
[28] = second compound 3.16 µM, first compound 0.949 µM
[29] = second compound 3.16 µM, first compound 3 µM
[30] = second compound 10 µM, first compound 0.00949 µM
[31] = second compound 10 µM, first compound 0.03 µM
[32] = second compound 10 µM, first compound 0.0949 µM
[33] = second compound 10 µM, first compound 0.3 µM
[34] = second compound 10 µM, first compound 0.949 µM
[35] = second compound 10 µM, first compound 3 µM

`CNC(C)C(=O)NC1CN(S(=O)(=O)c2cccc(S(=O)(=O)N3CCC4CCC(C(=O)NC(c5ccccc5)c5ccccc5)N4C(=O)C(NC(=O)C(C)NC)C3)c2)CCC2CCC(C(=O)NC(c3ccccc3)c3ccccc3)N2C1=O` (configuration not stated) + Cc1c(S(C)(=O)=O)c(-c2cc(F)cc(N3CCN(c4ccc(NS(=O)(=O)c5ccc(NC(CCN6CCC(C(=O)OCCCP(=O)(O)O)CC6)CSc6ccccc6)c(S(=O)(=O)C(F)(F)F)c5)cc4)CC3)c2)c(-c2ccc(Cl)cc2)n1C(C)C was tested, and the IC50 [1] was > 1000 nM, the IC50 [2] was > 1000 nM and the IC50 [3] was > 1000 nM. The IC50 [4] was > 1000 nM, the IC50 [5] was > 1000 nM and the viability, T/C (second compound 0.1 µM, first compound 0.00316 µM) was 114%. For the same molecule, the viability, T/C (second compound 0.1 µM, first compound 0.01 µM) was 122%, the viability, T/C (second compound 0.1 µM, first compound 0.0316 µM) was 111% and the viability, T/C (second compound 0.1 µM, first compound 0.1 µM) was 120%. It also gave a viability, T/C (second compound 0.1 µM, first compound 0.316 µM) of 99.8%, a viability, T/C (second compound 0.1 µM, first compound 1 µM) of 128% and a viability, T/C (second compound 0.316 µM, first compound 0.00316 µM) of 93.6%. It also gave a viability, T/C (second compound 0.316 µM, first compound 0.01 µM) of 117%, a viability, T/C (second compound 0.316 µM, first compound 0.0316 µM) of 107% and a viability, T/C (second compound 0.316 µM, first compound 0.1 µM) of 102%. The viability, T/C (second compound 0.316 µM, first compound 0.316 µM) was 104%, the viability, T/C (second compound 0.316 µM, first compound 1 µM) was 112% and the viability, T/C (second compound 1 µM, first compound 0.00316 µM) was 115%. The viability, T/C (second compound 1 µM, first compound 0.01 µM) was 97.5%, the viability, T/C (second compound 1 µM, first compound 0.0316 µM) was 107% and the viability, T/C (second compound 1 µM, first compound 0.1 µM) was 103%. It also gave a viability, T/C (second compound 1 µM, first compound 0.316 µM) of 76.9%, a viability, T/C (second compound 1 µM, first compound 1 µM) of 91% and a viability, T/C (second compound 3.16 µM, first compound 0.00316 µM) of 102%. The viability, T/C (second compound 3.16 µM, first compound 0.01 µM) was 112%, the viability, T/C (second compound 3.16 µM, first compound 0.0316 µM) was 109% and the viability, T/C (second compound 3.16 µM, first compound 0.1 µM) was 96.6%. The viability, T/C (second compound 3.16 µM, first compound 0.316 µM) was 85.7%, the viability, T/C (second compound 3.16 µM, first compound 1 µM) was 104% and the viability, T/C (second compound 10 µM, first compound 0.00316 µM) was 110%. The viability, T/C (second compound 10 µM, first compound 0.01 µM) was 104%, the viability, T/C (second compound 10 µM, first compound 0.0316 µM) was 70.4% and the viability, T/C (second compound 10 µM, first compound 0.1 µM) was 87.7%. The viability, T/C (second compound 10 µM, first compound 0.316 µM) was 111% and the viability, T/C (second compound 10 µM, first compound 1 µM) was 98.6%.
`CCN1C(C(=O)NC23CCC(C(=O)O)(CC2)CC3)C(c2cccc(Cl)c2F)C2(C(=O)Nc3cc(Cl)ccc32)C12CCCCC2` (configuration not stated) + Cc1c(S(C)(=O)=O)c(-c2cc(F)cc(N3CCN(c4ccc(NS(=O)(=O)c5ccc(NC(CCN6CCC(C(=O)OCCCP(=O)(O)O)CC6)CSc6ccccc6)c(S(=O)(=O)C(F)(F)F)c5)cc4)CC3)c2)c(-c2ccc(Cl)cc2)n1C(C)C was tested, and the IC50 [1] was > 3000 nM, the IC50 [2] was > 3000 nM and the IC50 [3] was > 3000 nM. The IC50 [4] was > 3000 nM, the IC50 [5] was > 3000 nM and the viability, T/C [6] was 101%. It also gave a viability, T/C [7] of 97.6%, a viability, T/C [8] of 95.5% and a viability, T/C [9] of 96.3%. The viability, T/C [10] was 80.3%, the viability, T/C [11] was 104% and the viability, T/C [12] was 86.3%. It also gave a viability, T/C [13] of 105%, a viability, T/C [14] of 94.8% and a viability, T/C [15] of 94.9%. For the same molecule, the viability, T/C [16] was 88.9%, the viability, T/C [17] was 83.6% and the viability, T/C [18] was 103%. The viability, T/C [19] was 82%, the viability, T/C [20] was 104% and the viability, T/C [21] was 99.5%. It also gave a viability, T/C [22] of 103%, a viability, T/C [23] of 95% and a viability, T/C [24] of 88.7%. It also gave a viability, T/C [25] of 103%, a viability, T/C [26] of 96.4% and a viability, T/C [27] of 114%. It also gave a viability, T/C [28] of 68%, a viability, T/C [29] of 85.1% and a viability, T/C [30] of 109%. It also gave a viability, T/C [31] of 84%, a viability, T/C [32] of 87.3% and a viability, T/C [33] of 59.1%. It also gave a viability, T/C [34] of 72.8% and a viability, T/C [35] of 56.3%.
For `NC(=O)C(=Cn1cnc(-c2cc(C(F)(F)F)cc(C(F)(F)F)c2)n1)c1cncnc1`, the viability, T/C (compound 0.000949 µM) was 91.3% and 79.1% and 81.8%, the viability, T/C (compound 0.003 µM) was 95.1% and 92.5% and 90.3% and the viability, T/C (compound 0.00949 µM) was 97.5% and 68.2% and 97.9%. For the same molecule, the viability, T/C (compound 0.03 µM) was 87.7% and 81.1% and 98%, the viability, T/C (compound 0.0949 µM) was 76% and 44% and 86.5% and the viability, T/C (compound 0.3 µM) was 14.6% and 47% and 69.7%. For the same molecule, the IC50 (curve of compound) was 154 nM and 81.7 nM and > 300 nM.
Work on `NC(=O)C(=Cn1cnc(-c2cc(C(F)(F)F)cc(C(F)(F)F)c2)n1)c1cncnc1` + Cc1c(S(C)(=O)=O)c(-c2cc(F)cc(N3CCN(c4ccc(NS(=O)(=O)c5ccc(NC(CCN6CCC(C(=O)OCCCP(=O)(O)O)CC6)CSc6ccccc6)c(S(=O)(=O)C(F)(F)F)c5)cc4)CC3)c2)c(-c2ccc(Cl)cc2)n1C(C)C yielded an IC50 [1] of 199 nM, an IC50 [2] of 126 nM and an IC50 [3] of 73.4 nM. For the same molecule, the IC50 [4] was 169 nM, the IC50 [5] was 53.4 nM and the viability, T/C (second compound 0.1 µM, first compound 0.000949 µM) was 87%. It also gave a viability, T/C (second compound 0.1 µM, first compound 0.003 µM) of 76.6%, a viability, T/C [6] of 109% and a viability, T/C [7] of 74.3%. The viability, T/C [8] was 86.7%, the viability, T/C [9] was 29.6% and the viability, T/C (second compound 0.316 µM, first compound 0.000949 µM) was 102%. For the same molecule, the viability, T/C (second compound 0.316 µM, first compound 0.003 µM) was 73.5%, the viability, T/C [12] was 103% and the viability, T/C [13] was 78.2%. For the same molecule, the viability, T/C [14] was 66.8%, the viability, T/C [15] was 4.66% and the viability, T/C (second compound 1 µM, first compound 0.000949 µM) was 88.5%. The viability, T/C (second compound 1 µM, first compound 0.003 µM) was 76.9%, the viability, T/C [18] was 88.9% and the viability, T/C [19] was 74%. The viability, T/C [20] was 43%, the viability, T/C [21] was 6.15% and the viability, T/C (second compound 3.16 µM, first compound 0.000949 µM) was 79.2%. It also gave a viability, T/C (second compound 3.16 µM, first compound 0.003 µM) of 88.6%, a viability, T/C [24] of 94.8% and a viability, T/C [25] of 59.2%. It also gave a viability, T/C [26] of 89%, a viability, T/C [27] of 18.3% and a viability, T/C (second compound 10 µM, first compound 0.000949 µM) of 76.1%. For the same molecule, the viability, T/C (second compound 10 µM, first compound 0.003 µM) was 84.5%, the viability, T/C [30] was 59.3% and the viability, T/C [31] was 70%. For the same molecule, the viability, T/C [32] was 35% and the viability, T/C [33] was 1.98%.
With `Cc1nc(N2CCC3(CC2)COC(C)C3N)c(CO)nc1Sc1ccnc(N)c1Cl` (configuration not stated) + Cc1c(S(C)(=O)=O)c(-c2cc(F)cc(N3CCN(c4ccc(NS(=O)(=O)c5ccc(NC(CCN6CCC(C(=O)OCCCP(=O)(O)O)CC6)CSc6ccccc6)c(S(=O)(=O)C(F)(F)F)c5)cc4)CC3)c2)c(-c2ccc(Cl)cc2)n1C(C)C the IC50 [1] was > 3000 nM, the IC50 [2] was > 3000 nM and the IC50 [3] was > 3000 nM. For the same molecule, the IC50 [4] was > 3000 nM, the IC50 [5] was > 3000 nM and the viability, T/C [6] was 126%. It also gave a viability, T/C [7] of 122%, a viability, T/C [8] of 112% and a viability, T/C [9] of 111%. It also gave a viability, T/C [10] of 128%, a viability, T/C [11] of 117% and a viability, T/C [12] of 125%. For the same molecule, the viability, T/C [13] was 130%, the viability, T/C [14] was 136% and the viability, T/C [15] was 127%. For the same molecule, the viability, T/C [16] was 111%, the viability, T/C [17] was 132% and the viability, T/C [18] was 92.8%. It also gave a viability, T/C [19] of 139%, a viability, T/C [20] of 122% and a viability, T/C [21] of 102%. The viability, T/C [22] was 118%, the viability, T/C [23] was 130% and the viability, T/C [24] was 132%. For the same molecule, the viability, T/C [25] was 128%, the viability, T/C [26] was 137% and the viability, T/C [27] was 123%. The viability, T/C [28] was 119%, the viability, T/C [29] was 118% and the viability, T/C [30] was 133%. For the same molecule, the viability, T/C [31] was 123%, the viability, T/C [32] was 125% and the viability, T/C [33] was 94%. The viability, T/C [34] was 114% and the viability, T/C [35] was 95.2%.
